According to US4877795A, “4H-quinolizin-4-one compounds useful for the treatment of allergic bronchial asthma, allergic rhinitis atropic dermatitis and the like” (Kissei Pharmaceutical Co., Ltd., priority 1987, dated 1989):

Tests used:
IgE = experiment: Determination of Igs produced in in vitro culture: inhibition of IgE secreted by spleen cells (adoptive secondary immune response to DNP-As), ELISA; format: cell-based, BALB/c mice; conditions: Mus musculus, 96 h, 4 days culture; for inhibition at 1 µg/mL: 1.0 μg/ml; for inhibition at 2.5 µg/mL: 2.5 μg/ml; for inhibition at 40 µg/mL: 40.0 μg/ml; for inhibition at 5 µg/mL: 5.0 μg/ml; for inhibition at 0.25 µg/mL: 0.25 μg/ml; for inhibition at 10 µg/mL: 10.0 μg/ml
Description: (§1) Determination of Igs produced in in vitro culture
(§2) BALB/c mice were immunized intraperitoneally with 5 μg of DNP-As adsorbed in 4 mg aluminum hydroxide gel. 4 weeks after the immunization, the spleens were excised from the mice and 5×10^7 spleen cells were transferred intravenously into the recipient mice which had been exposed to 600 rad of X-ray irradiation. Immediately after cell transfer, the recipients were then immunized intraperitoneally with 5 μg of DNP-As adsorbed in 4 mg aluminum hydroxide gel to induce adoptive secondary immune response. Further 4 weeks after the immunization of recipients, the spleens were excised from them and the spleen cell suspensions 5×10^6 cells/ml were cultured with or without a compound to be tested in 96-well micro plates at 37° C. for 4 days. IgE and IgG secreted into the culture supernatant was each determined correspondingly by ELISA and the inhibitory effect was calculated according to the following equation. [formula]

IgG = experiment: Determination of Igs produced in in vitro culture: inhibition of IgG secreted by spleen cells (adoptive secondary immune response to DNP-As), ELISA; format: cell-based, BALB/c mice; conditions: 4 days culture; for inhibition at 2.5 µg/mL: 2.5 μg/ml; for inhibition at 40 µg/mL: 40.0 μg/ml; for inhibition at 5 µg/mL: 5.0 μg/ml; for inhibition at 0.25 µg/mL: 0.25 μg/ml; for inhibition at 10 µg/mL: 10.0 μg/ml
Description: as §1, §2

CSc1c(C#N)c(=O)n2ccccc2c1C(=O)OCc1ccc2ccccc2c1 [S-41, 2'-Napthylmethyl 3-cyano-2-methylthio-4H-quinolizin-4-one-1-carboxylate]
inhibition at 1 µg/mL (IgE): 86%
inhibition at 1 µg/mL (IgG; Mus musculus, 96 h, 1.0 μg/ml): 68%

CSc1c(C#N)c(=O)n2ccccc2c1C(=O)N1CCN(c2ccccc2)CC1 [S-91, 3-Cyano-2-methylthio-1-(4-phenyl-1-piperadinylcarbonyl)-4H-quinolizin-4-one]
inhibition at 2.5 µg/mL (IgE): 39%
inhibition at 2.5 µg/mL (IgG; Mus musculus, 96 h): 11%

CSc1c(C#N)c(=O)n2ccccc2c1C(=O)N1CCCC2CCCCC21 (centres unmarked) [S-86]
inhibition at 2.5 µg/mL (IgE): 46%
inhibition at 2.5 µg/mL (IgG; Mus musculus, 96 h): 21%

CSc1c(C#N)c(=O)n2ccccc2c1C(=O)OCCCOc1ccccc1 [S-54, 3'-Phenoxypropyl 3-cyano-2-methylthio-4H-quinolizin-4-one-1-carboxylate]
inhibition at 1 µg/mL (IgE): 73%
inhibition at 1 µg/mL (IgG; Mus musculus, 96 h, 1.0 μg/ml): 50%

CSc1c(C#N)c(=O)n2ccccc2c1C(=O)N(C1CCCCC1)C1CCCCC1 [S-61, 3-Cyano-N,N-dicyclohexyl-2-methylthio-4H-quinolizin-4-one-1-carboxamide]
inhibition at 2.5 µg/mL (IgE): 93%
inhibition at 2.5 µg/mL (IgG; Mus musculus, 96 h): 48%

CSc1c(C#N)c(=O)n2ccccc2c1C(=O)OC1C=CCCC1 (centres unmarked) [S-15, 2'-Cyclohexenyl 3-cyano-2-methylthio-4H-quinolizin-4-one-1-carboxylate]
inhibition at 40 µg/mL (IgE): 62%
inhibition at 40 µg/mL (IgG; Mus musculus, 96 h): 21%

N#Cc1c(SCc2ccccc2)c(C(=O)N2CCC(c3ccccc3)CC2)c2ccccn2c1=O (single isomer, unassigned) [S-83A, 2-Benzylthio-3-cyano-1-(4-phenylpiperidinocarbonyl)-4H-quinolizin-4-one]
inhibition at 1 µg/mL (IgE): 67%
inhibition at 1 µg/mL (IgG; Mus musculus, 96 h, 1.0 μg/ml): 23%

CSc1c(C#N)c(=O)n2ccccc2c1C(=O)OCCCC1CCCCC1 [S-3, 3'-Cyclohexylpropyl 3-cyano-2-methylthio-4H-quinolizin-4-one-1-carboxylate]
inhibition at 1 µg/mL (IgE): 79%
inhibition at 1 µg/mL (IgG; Mus musculus, 96 h, 1.0 μg/ml): 35%

CCN(CC)C(=O)c1c(SC)c(C#N)c(=O)n2ccccc12 [S-62, 3-Cyano-N,N-diethyl-2-methylthio-4H-quinolizin-4-one-1-carboxamide]
inhibition at 40 µg/mL (IgE): 64%
inhibition at 40 µg/mL (IgG; Mus musculus, 96 h): 36%

CSc1c(C#N)c(=O)n2ccccc2c1C(=O)OC/C=C/c1ccccc1 [S-47, trans-Cinnamyl 3-cyano-2-methylthio-4H-quinolizin-4-one-1-carboxylate]
inhibition at 40 µg/mL (IgE): 60%
inhibition at 40 µg/mL (IgG; Mus musculus, 96 h): 28%

CSc1c(C#N)c(=O)n2ccccc2c1C(=O)OCc1cccc(Cl)c1 [S-38, 3'-Chlorobenzyl 3-cyano-2-methylthio-4H-quinolizin-4-one-1-carboxylate]
inhibition at 1 µg/mL (IgE): 77%
inhibition at 1 µg/mL (IgG; Mus musculus, 96 h, 1.0 μg/ml): 43%

CSc1c(C#N)c(=O)n2ccc(C)cc2c1C(=O)OCCc1ccccc1 [S-50, 2'-Phenylethyl 3-cyano-8-methyl-2-methylthio-4H-quinolizin-4-one-1-carboxylate]
inhibition at 1 µg/mL (IgE): 64%
inhibition at 1 µg/mL (IgG; Mus musculus, 96 h, 1.0 μg/ml): 42%

CCCCOC(=O)c1c(SC)c(C#N)c(=O)n2ccccc12 [S-9, Butyl 3-cyano-2-methylthio-4H-quinolizin-4-one-1-carboxylate]
inhibition at 2.5 µg/mL (IgE): 54%
inhibition at 2.5 µg/mL (IgG; Mus musculus, 96 h): 17%

CSc1c(C#N)c(=O)n2ccccc2c1C(=O)NCc1ccccc1 [S-73, N-Benzyl-3-cyano-2-methylthio-4H-qunolizin-4-one-1-carboxamide]
inhibition at 40 µg/mL (IgE): 55%
inhibition at 40 µg/mL (IgG; Mus musculus, 96 h): 24%

CSc1c(C#N)c(=O)n2ccccc2c1C(=O)O[C@H]1CC[C@H](O)CC1 [S-16, trans-4'-Hydroxycyclohexyl 3-cyano-2-methylthio-4H-quinolizin-4-one-1-carboxylate]
inhibition at 5 µg/mL (IgE): 52%
inhibition at 5 µg/mL (IgG; Mus musculus, 96 h): 14%

CSc1c(C#N)c(=O)n2ccccc2c1C(=O)OCCCc1ccccc1 [S-45, 3'-Phenylpropyl 3-cyano-2-methylthio-4H-quinolizin-4-one-1-carboxylate]
inhibition at 5 µg/mL (IgE): 71%
inhibition at 5 µg/mL (IgG; Mus musculus, 96 h): 16%

CSc1c(C#N)c(=O)n2ccccc2c1C(=O)N(C)Cc1ccccc1 [S-66, N-Benzyl-3-cyano-N-methyl-2-methylthio-4H-quinolizin-4-one-1-carboxamide]
inhibition at 40 µg/mL (IgE): 64%
inhibition at 40 µg/mL (IgG; Mus musculus, 96 h): 35%

COc1ccccc1COC(=O)c1c(SC)c(C#N)c(=O)n2ccccc12 [S-37, 2'-Methoxybenzyl 3-cyano-2-methylthio-4H-quinolizin-4-one-1-carboxylate]
inhibition at 0.25 µg/mL (IgE): 36%
inhibition at 0.25 µg/mL (IgG; Mus musculus, 96 h): 11%

CSc1c(C#N)c(=O)n2ccccc2c1C(=O)OC(C)C [S-8, Isopropyl 3-cyano-2-methylthio-4H-quinolizin-4-one-1-carboxylate]
inhibition at 2.5 µg/mL (IgE): 36%
inhibition at 2.5 µg/mL (IgG; Mus musculus, 96 h): 18%

CSc1c(C#N)c(=O)n2ccccc2c1C(=O)N1CCC(Cc2ccccc2)CC1 (single isomer, unassigned) [S-82B, 1-(4-Benzylpiperidinocarbonyl)-3-cyano-2-methylthio-4H-quinolizin-4-one]
inhibition at 2.5 µg/mL (IgE): 63%
inhibition at 2.5 µg/mL (IgG; Mus musculus, 96 h): 8%

CSc1c(C#N)c(=O)n2ccccc2c1C(=O)OCc1ccc(F)cc1 [S-34, 4'-Fluorobenzyl 3-cyano-2-methylthio-4H-quinolizin-4-one-1-carboxylate]
inhibition at 0.25 µg/mL (IgE): 52%
inhibition at 0.25 µg/mL (IgG; Mus musculus, 96 h): 31%

COc1ccc(COC(=O)c2c(SC)c(C#N)c(=O)n3ccccc23)cc1 [S-31, 4'-Methoxybenzyl 3-cyano-2-methylthio-4H-quinolizin-4-one-1-carboxylate]
inhibition at 40 µg/mL (IgE): 34%
inhibition at 40 µg/mL (IgG; Mus musculus, 96 h): 3%

CSc1c(C#N)c(=O)n2ccccc2c1C(C)=O [S-92, 1-Acetyl-3-cyano-2-methylthio-4H-quinolizin-4-one]
inhibition at 40 µg/mL (IgE): 56%
inhibition at 40 µg/mL (IgG; Mus musculus, 96 h): 8%

CCCCSc1c(C#N)c(=O)n2ccccc2c1C(=O)OCC [S-58, Ethyl 3-cyano-2-butylthio-4H-quinolizin-4-one-1-carboxylate]
inhibition at 10 µg/mL (IgE): 89%
inhibition at 10 µg/mL (IgG; Mus musculus, 96 h): 60%

CSc1c(C#N)c(=O)n2ccccc2c1C(=O)NC1CCCc2ccccc21 (centres unmarked) [S-76, 3-Cyano-2-methylthio-N-(1,2,3,4-tetrahydro-1-naphthyl)-4H-quinolizin-4-one-1-carboxamide]
inhibition at 2.5 µg/mL (IgE): 37%
inhibition at 2.5 µg/mL (IgG; Mus musculus, 96 h): 1%

CSc1c(C#N)c(=O)n2ccccc2c1C(=O)OC(C)Cc1ccccc1 (centres unmarked) [S-43, 1'-Methyl-2'-phenylethyl 3-cyano-2-methylthio-4H-quinolizin-4-one-1-carboxylate]
inhibition at 1 µg/mL (IgE): 75%
inhibition at 1 µg/mL (IgG; Mus musculus, 96 h, 1.0 μg/ml): 46%

CSc1c(C#N)c(=O)n2ccccc2c1C(=O)OCc1ccc2c(c1)OCO2 [S-26, Piperonyl 3-cyano-2-methylthio-4H-quinolizin-4-one-1-carboxylate]
inhibition at 40 µg/mL (IgE): 48%
inhibition at 40 µg/mL (IgG; Mus musculus, 96 h): 17%

CCOc1ccc(COC(=O)c2c(SC)c(C#N)c(=O)n3ccccc23)cc1 [S-33, 4'-Ethoxybenzyl 3-cyano-2-methylthio-4H-quinolizin-4-one-1-carboxylate]
inhibition at 20 µg/mL (IgE; 20.0 μg/ml): 81%
inhibition at 20 µg/mL (IgG; Mus musculus, 96 h, 20.0 μg/ml): 47%

CSc1c(C#N)c(=O)n2ccccc2c1C(=O)N(C(C)C)C(C)C [S-63, 3-Cyano-N,N-diisopropyl-2-methylthio-4H-quinolizin-4-one-1-carboxamide]
inhibition at 40 µg/mL (IgE): 85%
inhibition at 40 µg/mL (IgG; Mus musculus, 96 h): 47%

COc1ccc(CC(=O)c2c(SC)c(C#N)c(=O)n3ccccc23)cc1 [S-102, 3-Cyano-1-(4-methoxyphenylacetyl)-2-methylthio-4H-quinolizin-4-one]
inhibition at 10 µg/mL (IgE): 52%
inhibition at 10 µg/mL (IgG; Mus musculus, 96 h): 20%

CSc1c(C#N)c(=O)n2ccccc2c1C(=O)OCc1ccc(-c2ccccc2)cc1 [S-40, 4'-phenylbenzyl 3-cyano-2-methylthio-4H-quinolizin-4-one-1-carboxylate]
inhibition at 0.25 µg/mL (IgE): 53%
inhibition at 0.25 µg/mL (IgG; Mus musculus, 96 h): 34%

COc1cc(COC(=O)c2c(SC)c(C#N)c(=O)n3ccccc23)cc(OC)c1OC [S-27, 3',4',5'-Trimethoxybenzyl 3-cyano-2-methylthio-4H-quinolizin-4-one-1-carboxylate]
inhibition at 2.5 µg/mL (IgE): 56%
inhibition at 2.5 µg/mL (IgG; Mus musculus, 96 h): 16%

CSc1c(C#N)c(=O)n2ccccc2c1C(=O)N1CCN(Cc2ccc3c(c2)OCO3)CC1 [S-89, 3-Cyano-2-methylthio-1-(4-piperonyl-1-piperadinyl-carbonyl)-4H-quinolizin-4-one]
inhibition at 5 µg/mL (IgE): 58%
inhibition at 5 µg/mL (IgG; Mus musculus, 96 h): 32%

CSc1c(C#N)c(=O)n2ccccc2c1C(=O)OC(C)c1ccc(C#N)cc1 (centres unmarked) [S-32, 1'-(4-Cyanophenyl)ethyl 3-cyano-2-methylthio-4H-quinolizin-4-one-1-carboxylate]
inhibition at 1 µg/mL (IgE): 52%
inhibition at 1 µg/mL (IgG; Mus musculus, 96 h, 1.0 μg/ml): 28%

CSc1c(C#N)c(=O)n2ccccc2c1C(=O)OCCC(C)C [S-11, Isopentyl 3-cyano-2-methylthio-4H-quinolizin-4-one-1-carboxylate]
inhibition at 5 µg/mL (IgE): 66%
inhibition at 5 µg/mL (IgG; Mus musculus, 96 h): 30%

CSc1c(C#N)c(=O)n2ccccc2c1C(=O)N1CCc2ccccc2C1 [S-87, 3-Cyano-2-methylthio-1-(1,2,3,4-tetrahydroisoquinolin-2-ylcarbonyl)-4H-quinolizin-4-one]
inhibition at 5 µg/mL (IgE): 61%
inhibition at 5 µg/mL (IgG; Mus musculus, 96 h): 36%

CSc1c(C#N)c(=O)n2cccc(C)c2c1C(=O)N1CCC(c2ccccc2)CC1 (single isomer, unassigned) [S-81A, 3-Cyano-9-methyl-2methylthio-1-(4-phenylpiperidinocarbonyl)-4H-quinolizin-4-one]
inhibition at 1 µg/mL (IgE): 46%
Inhibition % of IgG (IgG; 1.0 μg/ml): 17%
